Laboratory results published in patent publication US20230106032A1, “IMIDAZOTRIAZINES ACTING ON CANCER VIA INHIBITION OF CDK12” (Bayer Aktiengesellschaft, priority 2020, published 2023).

Key:
CDK12/CycK = target: T1, CDK12/CycK (Homo sapiens, UniProt Q9NYV4); test: CDK12/CycK high ATP kinase assay (TR-FRET, 2 mM ATP); format: biochemical; settings: read-out: CDK12/CyclinK, 2 mM ATP (high ATP), IC50-[mol/l] (median)
T1 construct: His-CDK12 (aa Q696-S1082); made in house; host or cells: Hi-5 insect cells (baculovirus co-infection with CAK1)
Description: In the context of the present invention, the term “IC50 CDK12 hATP” refers to the IC50 values obtained according to the assay described in this section (2.2) herein below, i.e. the IC50 values for the inhibition of CDK12 at high ATP.
CDK12/CycK-inhibitory activity of compounds of the present invention at 2 millimol/L adenosine-tri-phosphate (ATP) was quantified employing the TR-FRET (TR-FRET=Time Resolved Fluorescence Energy Transfer) based CDK12/CycK activity inhibition assay as described in the following paragraphs.
A complex of human recombinant CDK12 and human recombinant CycK (both N-terminally His-tagged, expression and purification as described above) was used as enzyme. As substrate for the kinase reaction biotinylated peptide biotin-Ahx-KFELLPTPPLSPSRRSGL (C-terminus in amid form) was used which can be purchased e.g. form the company Biosyntan (Berlin-Buch, Germany).
For the assay 50 nanoL of a 100 fold concentrated solution of the test compound in DMSO was pipetted into either a black low volume 384 well microtiter plate or a black 1536 well microtiter plate (both Greiner Bio-One, Frickenhausen, Germany), 2 microL of a solution of CDK12/CycK in aqueous assay buffer [25 millimol/L HEPES pH 7.5, 20 millimol/L MgCl2, 5 millimol/L ß-glycerophosphate, 2 millimol/L EGTA, 1.0 millimol/L dithiothreitol, 0.01% (v/v) Nonidet-P40 (Sigma), 0.01% (w/v) bovine serum albumin] were added and the mixture was incubated for 15 min at 22° C. to allow pre-binding of the test compounds to the enzyme before the start of the kinase reaction. Then the kinase reaction was started by the addition of 3 microL of a solution ATP (3.33 millimol/L=> final conc. in the 5 microL assay volume is 2 millimol/L) and substrate (1.67 micromol/L=> final conc. in the 5 microL assay volume is 1 micromol/L) in assay buffer and the resulting mixture was incubated for a reaction time of 60 min at 22° C. The concentration of CDK12/CycK was adjusted depending of the activity of the enzyme lot and was chosen appropriate to have the assay in the linear range, typical concentrations were about 0.75 nanomol/L. The reaction was stopped by the addition of 3 microL of a solution of TR-FRET detection reagents (125 nanomol/L streptavidine-XL665 [Cisbio Bioassays, Codolet, France] and 0.67 nanomol/L anti-Phospho-c-Myc (Ser 62) (E1J4K)-antibody from Cell Signalling [#13748] and 2 nanomol/L LANCE EU-W1024 labeled anti-rabbit IgG antibody [Perkin-Elmer, product no. 0083]) in an aqueous EDTA-solution (133 millimol/L EDTA, 0.27% (w/v) bovine serum albumin in 66.7 millimol/L HEPES pH 7.5).
The resulting mixture was incubated 1 h at 22° C. to allow the formation of complex between the phosphorylated biotinylated peptide and the detection reagents. Subsequently the amount of phosphorylated substrate was evaluated by measurement of the resonance energy transfer from the Eu-chelate to the streptavidine-XL. Therefore, the fluorescence emissions at 620 nm and 665 nm after excitation at 350 nm was measured in a TR-FRET reader, e.g. a Pherastar FS (BMG Labtechnologies, Offenburg, Germany) or a Viewlux (Perkin-Elmer). The ratio of the emissions at 665 nm and at […] was taken as the measure for the amount of phosphorylated substrate. The data were normalised (enzyme reaction without inhibitor=0% inhibition, all other assay components but no enzyme=100% inhibition).

[1] = system: CAL-120 human breast adenocarcinoma cells; test: Proliferation assay CAL-120 (crystal violet); format: cell-based; settings: 96 h, CAL-120 cells, 4 days, read-out: Prolif-CAL-120_ IC50-[mol/l] (median)
Experimental: Human tumour cells were originally obtained from the American Type Culture Collection (ATCC), or from the Deutsche Sammlung von Mikroorganismen und Zellkulturen (DSMZ, German Collection of Microorganisms and Cell Cultures). Cultivated tumour cells (CAL-120, human breast adenocarcinoma cells, DSMZ ACC-459; MDA-MB-231, human breast cancer cells, ATCC HTB-26) were plated at a density of 4,000 cells/well in a 96-well multititer plate in 200 microL of their respective growth medium supplemented 10% fetal calf serum. After 24 hours, the cells of one plate (zero-point plate) were stained with crystal violet (see below), while the medium of the other plates was supplemented with the test substances in various concentrations (0 micromol/L, as well as in the range of 0.01-10 micromol/L; the final concentration of the solvent dimethyl sulfoxide was adjusted to 0.1%) using a Tecan HP D300 Digital Dispenser. The cells were incubated for 4 days in the presence of test substances. Cell proliferation was determined by staining the cells with crystal violet: the cells were fixed by adding 20 microL/measuring point of an 11% glutaric aldehyde solution for 15 minutes at room temperature. After three washing cycles of the fixed cells with water, the plates were dried at room temperature. The cells were stained by adding 100 microL/measuring point of a 0.1% crystal violet solution (pH 3.0). After three washing cycles of the stained cells with water, the plates were dried at room temperature. The dye was dissolved by adding 100 microL/measuring point of a 10% acetic acid solution. The extinction was determined by photometry at a wavelength of 595 nm. The change of cell number, in percent, was calculated by normalization of the measured values to the extinction values of the zero-point plate (=0%) and the extinction of the untreated (0 μM) cells (=100%). The IC50 values (inhibitory concentration at 50% of maximal effect) were determined by means of a 4 parameter fit.

T1 sequence (Q9NYV4 with tags, fused parts or gaps): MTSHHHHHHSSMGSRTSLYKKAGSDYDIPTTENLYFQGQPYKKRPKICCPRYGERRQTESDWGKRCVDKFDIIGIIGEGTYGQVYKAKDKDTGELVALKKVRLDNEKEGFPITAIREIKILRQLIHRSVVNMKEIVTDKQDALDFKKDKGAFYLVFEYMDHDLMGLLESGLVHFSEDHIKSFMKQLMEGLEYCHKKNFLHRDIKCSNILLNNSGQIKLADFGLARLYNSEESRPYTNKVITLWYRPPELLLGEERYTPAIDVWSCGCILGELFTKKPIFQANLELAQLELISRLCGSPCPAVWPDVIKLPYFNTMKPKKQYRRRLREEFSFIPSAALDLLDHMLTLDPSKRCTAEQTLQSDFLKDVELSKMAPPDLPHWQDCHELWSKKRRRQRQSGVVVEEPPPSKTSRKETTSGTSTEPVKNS
T1 sequence (O75909 with tags, fused parts or gaps partner limits assumed): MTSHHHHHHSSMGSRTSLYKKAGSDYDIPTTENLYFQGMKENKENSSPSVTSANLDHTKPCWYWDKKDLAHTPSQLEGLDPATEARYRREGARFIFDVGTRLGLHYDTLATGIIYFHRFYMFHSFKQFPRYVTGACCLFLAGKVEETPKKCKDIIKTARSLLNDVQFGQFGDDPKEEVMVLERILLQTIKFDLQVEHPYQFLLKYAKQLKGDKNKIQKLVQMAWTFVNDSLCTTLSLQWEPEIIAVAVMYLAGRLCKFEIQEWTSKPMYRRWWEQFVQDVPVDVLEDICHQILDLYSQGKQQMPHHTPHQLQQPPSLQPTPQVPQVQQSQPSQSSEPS

Brc1cnc2c(NCc3nc4ccccc4[nH]3)nc(N3CCOCC3)nn12 [Example 1, N-[(1H-benzimidazol-2-yl)methyl]-7-bromo-2-(morpholin-4-yl)imidazo[2,1-f][1,2,4]triazin-4-amine]
IC50 (CDK12/CycK): 5110 nM

CN(CC(C)(C)O)c1nc(NCc2nc3ccccc3[nH]2)c2ncc(C(F)(F)F)n2n1 [Example 30, 1-[{4-[(1H-benzimidazol-2-ylmethyl)amino]-7-(trifluoromethyl)imidazo[2,1-f][1,2,4]triazin-2-yl}(methyl)amino]-2-methylpropan-2-ol]
IC50 (CDK12/CycK): 163 nM
IC50 [1]: 9.95 nM

C[C@@H]1CN(c2nc(NCc3nc4c(F)c(F)ccc4[nH]3)c3ncc(Br)n3n2)C[C@H](C)N1 [Example 11, 7-bromo-N-[(4,5-difluoro-1H-benzimidazol-2-yl)methyl]-2-[rel-(3R,5S)-3,5-dimethylpiperazin-1-yl]imidazo[2,1-f][1,2,4]triazin-4-amine]
IC50 (CDK12/CycK): 579 nM
IC50 [1]: 0.381 nM

C[C@@H]1CN(c2nc(NCc3nc4c(F)c(F)ccc4[nH]3)c3ncc(Br)n3n2)C[C@H](C)O1 [Example 5, 7-bromo-N-[(4,5-difluoro-1H-benzimidazol-2-yl)methyl]-2-[rel-(2R,6S)-2,6-dimethylmorpholin-4-yl]imidazo[2,1-f][1,2,4]triazin-4-amine]
IC50 (CDK12/CycK): 137 nM
IC50 [1]: 7.97 nM

C[C@@H]1CN(c2nc(NCc3nc4cc(F)ccc4[nH]3)c3ncc(Br)n3n2)C[C@H](C)N1 [Example 19, 7-bromo-2-[rel-(3R,5S)-3,5-dimethylpiperazin-1-yl]-N-[(5-fluoro-1H-benzimidazol-2-yl)methyl]imidazo[2,1-f][1,2,4]triazin-4-amine]
IC50 (CDK12/CycK): 6430 nM
IC50 [1]: 1.14 nM

Fc1cccc2[nH]c(CNc3nc(N4CCNCC4)nn4c(Br)cnc34)nc12 [Example 22, 7-bromo-N-[(4-fluoro-1H-benzimidazol-2-yl)methyl]-2-(piperazin-1-yl)imidazo[2,1-f][1,2,4]triazin-4-amine]
IC50 (CDK12/CycK): 2560 nM
IC50 [1]: 3.06 nM

C[C@@H]1CN(c2nc(NCc3nc4ccccc4[nH]3)c3ncc(Br)n3n2)C[C@H](C)O1 [Example 4, N-[(1H-benzimidazol-2-yl)methyl]-7-bromo-2-[rel-(2R,6S)-2,6-dimethylmorpholin-4-yl]imidazo[2,1-f][1,2,4]triazin-4-amine]
IC50 (CDK12/CycK): 990 nM
IC50 [1]: 53.8 nM

CN1CCN(c2nc(NCc3nc4c(F)cccc4[nH]3)c3ncc(Br)n3n2)CC1 [Example 23, 7-bromo-N-[(4-fluoro-1H-benzimidazol-2-yl)methyl]-2-(4-methylpiperazin-1-yl)imidazo[2,1-f][1,2,4]triazin-4-amine]
IC50 (CDK12/CycK): 10800 nM
IC50 [1]: 14.2 nM

Fc1cccc(-c2cnc3c(NCc4nc5ccccc5[nH]4)nc(N4CCOCC4)nn23)c1 [Example 3, N-[(1H-benzimidazol-2-yl)methyl]-7-(3-fluorophenyl)-2-(morpholin-4-yl)imidazo[2,1-f][1,2,4]triazin-4-amine]
IC50 (CDK12/CycK): > 20000 nM

C[C@@H]1CN(c2nc(NCc3nc4c(F)cccc4[nH]3)c3ncc(Br)n3n2)C[C@H](C)N1 [Example 18, 7-bromo-2-[rel-(3R,5S)-3,5-dimethylpiperazin-1-yl]-N-[(4-fluoro-1H-benzimidazol-2-yl)methyl]imidazo[2,1-f][1,2,4]triazin-4-amine]
IC50 (CDK12/CycK): 1800 nM
IC50 [1]: 2.08 nM

CN1CCN(c2nc(NCc3nc4ccccc4[nH]3)c3ncc(Br)n3n2)CC1 [Example 6, N-[(1H-benzimidazol-2-yl)methyl]-7-bromo-2-(4-methylpiperazin-1-yl)imidazo[2,1-f][1,2,4]triazin-4-amine]
IC50 (CDK12/CycK): > 18600 nM
IC50 [1]: 61.4 nM

Fc1ccc2[nH]c(CNc3nc(N4CCOCC4)nn4c(Br)cnc34)nc2c1 [Example 20, 7-bromo-N-[(5-fluoro-1H-benzimidazol-2-yl)methyl]-2-(morpholin-4-yl)imidazo[2,1-f][1,2,4]triazin-4-amine]
IC50 (CDK12/CycK): 3460 nM
IC50 [1]: 10.7 nM

Fc1cccc2[nH]c(CNc3nc(N4CCOCC4)nn4c(Br)cnc34)nc12 [Example 12, 7-bromo-N-[(4-fluoro-1H-benzimidazol-2-yl)methyl]-2-(morpholin-4-yl)imidazo[2,1-f][1,2,4]triazin-4-amine]
IC50 (CDK12/CycK): 4710 nM
IC50 [1]: 49.6 nM

C[C@@H]1CN(c2nc(NCc3nc4ccccc4[nH]3)c3ncc(Br)n3n2)C[C@H](C)N1 [Example 9, N-[(1H-benzimidazol-2-yl)methyl]-7-bromo-2-[rel-(3R,5S)-3,5-dimethylpiperazin-1-yl]imidazo[2,1-f][1,2,4]triazin-4-amine]
IC50 (CDK12/CycK): 4900 nM
IC50 [1]: 2.04 nM

C[C@@H]1CN(c2nc(NCc3nc4ccccc4[nH]3)c3ncc(C(F)(F)F)n3n2)C[C@H](C)N1.O=CO [Example 24, N-[(1H-benzimidazol-2-yl)methyl]-2-[rel-(3R,5S)-3,5-dimethylpiperazin-1-yl]-7-(trifluoromethyl)imidazo[2,1-f][1,2,4]triazin-4-amine Formate (1/1)]
IC50 (CDK12/CycK): 737 nM
IC50 [1]: 1.2 nM

FC(F)(F)c1cnc2c(NCc3nc4ccccc4[nH]3)nc(N3CCOCC3)nn12 [Example 26, N-[(1H-benzimidazol-2-yl)methyl]-2-(morpholin-4-yl)-7-(trifluoromethyl)imidazo[2,1-f][1,2,4]triazin-4-amine]
IC50 (CDK12/CycK): 172 nM
IC50 [1]: 7.11 nM

N#Cc1cnc2c(NCc3nc4ccccc4[nH]3)nc(N3CCOCC3)nn12 [Example 2, 4-{[(1H-benzimidazol-2-yl)methyl]amino}-2-(morpholin-4-yl)imidazo[2,1-f][1,2,4]triazine-7-carbonitrile]
IC50 (CDK12/CycK): 6980 nM
IC50 [1]: 103 nM

CN1CCN(c2nc(NCc3nc4ccccc4[nH]3)c3ncc(C(F)(F)F)n3n2)CC1 [Example 25, N-[(1H-benzimidazol-2-yl)methyl]-2-(4-methylpiperazin-1-yl)-7-(trifluoromethyl)imidazo[2,1-f][1,2,4]triazin-4-amine]
IC50 (CDK12/CycK): 10800 nM
IC50 [1]: 12.3 nM

Fc1ccc2[nH]c(CNc3nc(N4CCOCC4)nn4c(C(F)(F)F)cnc34)nc2c1F [Example 27, N-[(4,5-difluoro-1H-benzimidazol-2-yl)methyl]-2-(morpholin-4-yl)-7-(trifluoromethyl)imidazo[2,1-f][1,2,4]triazin-4-amine]
IC50 (CDK12/CycK): 10.7 nM
IC50 [1]: 2.01 nM
